Reference: patent EP4595972A1, “PEPTIDE FOR TREATING OR PREVENTING 4R TAUOPATHY” (GemVax & KAEL Co., Ltd., priority 2022, dated 2024)

How the values were obtained:
TauP301L-BiFC mice = experiment: Rota-rod test (motor ability) in 4R TauP301L-BiFC mouse model; format: in vivo
Protocol: • (1) After carrying out adaptation training for 3 days, a behavior experiment was performed on day 4. • (2) 1 hour before the experiment, a time for adaptation of experimental mice in a space where the behavior experiment is conducted, should be ensured. • (3) During the period for adaptation training, each mouse is forced to walk on a treadmill for 360 seconds at a speed of 5 rpm, 15 rpm, 20/25 rpm. Here, an experimental mouse losing a balance and fallen to the floor was forced to walk again. • (4) After the adaptation training, the behavior experiment was conducted by gradually increasing the speed from 5 rpm to 35 rpm for 480 seconds. When the treadmill worked, a time (seconds) taken until the experimental mouse lost the balance and fallen to the floor was measured.
Results of evaluating motor ability improvement efficacy through a Rota-rod test in a 4R TauP301L-BiFC mouse model were shown in Table 4 below and FIG. 2. Using a TauP301L-BiFC mouse model including 7- to 12-month-old mice administered with the drug for 5 months, the experiment was conducted. The results were analyzed through bidirectional ANOVA using Tukey's multiple-comparisons (*p<0.05; **p<0.01; n.s.: Insignificant for vehicle).

[1] = test system: human Tau-BiFC (hTau-VN173, hTau-VC155); experiment: Tau immunoblot of brain lysate, soluble fraction, hTau; format: in vivo, mouse; details: LMTM 15 mg/kg oral vs. vehicle; decrease (in parentheses)
Protocol: • (1) After completing administration, the mice of TauP301L-BiFC mouse model were anesthetized, followed by preparing heart laparotomy. • (2) Saline was introduced to the heart of each mouse in the TauP301L-BiFC mouse model, followed by removing vivo blood using a perfusion pump machine. • (3) After removing the blood, the brain was extracted and weighed. • (4) 1 mL RIPA buffer (w/protease/phosphatase inhibitor cocktail) was added to the extracted brain, followed by homogenization. • (5) After moving the homogenized brain lysate to an ep-tube, it was subjected to incubation in 4°C orbital shaker for 2 hours. • (6) After centrifugation at 4°C with a speed of 13,000 rpm for 20 minutes, the supernatant (soluble fraction) was collected in a new ep-tube and stored at -80°C • (7) In order to prepare an immunoblot sample, the concentration of a soluble fraction sample was quantified by Bradford protein quantification method. • (8) To each sample, RIPA buffer and 4X SDS Laemmli sample buffer (w/ 2.5% β-mercaptoethanol for reducing condition) were added to reach a final concentration of 2 mg/mL. • (9) The sample was boiled at 97°C for 5 minutes. […]

total tau (Tau5) = experiment: Tau immunoblot of brain lysate, insoluble fraction, total tau; format: in vivo, mouse; details: LMTM 15 mg/kg oral vs. vehicle; decrease (in parentheses)
Protocol: • (1) Pellets remaining after moving the supernatant (soluble fraction) were dispersed in 1 mL of 1M sucrose, DNase I (conc. 1 mg/mL) in RIPA buffer. • (2) After centrifugation at 4°C with a speed of 13,000 rpm for 20 minutes, the supernatant was removed. • (3) After resuspension of pellets in 2% SDS solution (1 mL per gram of tissue), the mixture was subjected to incubation at room temperature for 1 hour. • (4) After centrifugation at room temperature with a speed of 13,000 rpm for 1 minute, the supernatant (insoluble fraction) was collected and moved to a new ep-tube, and the same amount of 2X SDS Laemmli sample buffer (w/ 2.5% β-mercaptoethanol for reducing condition) was added thereto. • (5) The sample was boiled at 97°C for 5 minutes. […]

tau aggregation = tau aggregation (Homo sapiens, UniProt P10636); details: reported in Kim et al., Exp. Mol. Med. 55, 612-627 (2023); read-out: EC50 (tau aggregation inhibitory section); cited from earlier work
Chain of tau aggregation (P10636 whole entry): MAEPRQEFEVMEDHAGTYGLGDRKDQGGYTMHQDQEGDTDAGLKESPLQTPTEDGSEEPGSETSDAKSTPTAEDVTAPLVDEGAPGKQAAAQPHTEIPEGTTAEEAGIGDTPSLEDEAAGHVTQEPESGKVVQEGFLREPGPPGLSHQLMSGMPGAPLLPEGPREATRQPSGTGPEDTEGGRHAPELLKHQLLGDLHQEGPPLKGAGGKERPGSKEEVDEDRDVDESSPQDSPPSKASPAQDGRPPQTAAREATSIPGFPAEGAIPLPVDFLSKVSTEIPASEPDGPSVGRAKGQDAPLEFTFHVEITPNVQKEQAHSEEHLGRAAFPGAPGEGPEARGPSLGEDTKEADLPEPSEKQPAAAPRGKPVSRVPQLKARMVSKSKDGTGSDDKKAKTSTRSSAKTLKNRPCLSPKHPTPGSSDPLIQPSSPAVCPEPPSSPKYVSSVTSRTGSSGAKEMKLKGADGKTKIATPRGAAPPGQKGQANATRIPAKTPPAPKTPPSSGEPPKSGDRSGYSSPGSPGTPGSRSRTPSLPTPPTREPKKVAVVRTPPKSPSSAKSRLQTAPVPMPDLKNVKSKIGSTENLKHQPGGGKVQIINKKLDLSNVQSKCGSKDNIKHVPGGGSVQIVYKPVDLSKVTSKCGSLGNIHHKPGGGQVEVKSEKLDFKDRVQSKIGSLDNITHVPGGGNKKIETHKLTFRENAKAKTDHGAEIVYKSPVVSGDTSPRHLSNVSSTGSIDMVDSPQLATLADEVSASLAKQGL

Structure (SMILES): CN(C)c1ccc2c(c1)Sc1cc(N(C)C)ccc1N2.CS(=O)(=O)O.CS(=O)(=O)O [LMTM]
- Duration (Rota-rod test on 11.9 months) (TauP301L-BiFC mice; LMTM 15 mg/kg oral vs. vehicle, improvement): 57%
- exercise performance (Rota-rod treadmill), in words (TauP301L-BiFC mice; LMTM 15 mg/kg vs. vehicle, mice administered 59 times): exercise performance tended to improve, however, did not show a significant difference
- Soluble fraction, Phosphorylated tau, hTau (pS199) [1]: (20%)
- Soluble fraction, Phosphorylated tau, hTau (pS396) [1]: (23%)
- Soluble fraction, Total tau, hTau [1]: (20%)
- Insoluble fraction, Total tau (total tau (Tau5)): (42%)
- EC50 (tau aggregation): 2200 ± 200 nM
